{"source": "patent US10597388B2", "about": "“Pyridazinone herbicides” (FMC CORPORATION, priority 2014, dated 2020)", "assay_in_all_cases": "Test D controlled growth environment herbicide test, pre- and postemergence", "assay_type_in_all_cases": "in vivo", "key": {"[1]": {"tested_on": "oilseed rape (Brassica napus)", "summary_of_the_method": "(§1)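 Rating is visual, 0–100 scale (100 = complete control), made against untreated plants 14–21 d after treatment in controlled growth conditions. Postemergence sprays went onto 1- to 4-leaf plants in peat medium; preemergence sprays onto silt loam after sowing; formulation included a surfactant.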"}, "[2]": {"tested_on": "galium (catchweed bedstraw, Galium aparine)", "summary_of_the_method": "as §1"}, "[3]": {"tested_on": "wheat, winter (winter wheat, Triticum aestivum)", "summary_of_the_method": "as §1"}, "[4]": {"tested_on": "oat, wild (wild oat, Avena fatua)", "summary_of_the_method": "as §1"}, "[5]": {"tested_on": "pigweed (Amaranthus retroflexus)", "summary_of_the_method": "as §1"}, "[6]": {"tested_on": "wheat, spring (spring wheat, Triticum aestivum)", "summary_of_the_method": "as §1"}, "[7]": {"tested_on": "canarygrass (Phalaris minor)", "summary_of_the_method": "as §1"}, "[8]": {"tested_on": "buckwheat, wild (wild buckwheat, Polygonum convolvulus)", "summary_of_the_method": "as §1"}, "[9]": {"tested_on": "field violet (Viola arvensis)", "summary_of_the_method": "as §1"}, "[10]": {"tested_on": "chickweed (common chickweed, Stellaria media)", "summary_of_the_method": "as §1"}, "kochia (Kochia scoparia)": {"tested_on": "kochia (Kochia scoparia)", "summary_of_the_method": "as §1"}, "[11]": {"tested_on": "barley, spring (spring barley, Hordeum vulgare)", "summary_of_the_method": "as §1"}, "[12]": {"details": "Postemergence, 31 g ai/ha, scale 0 to 100 (0 no effect, 100 complete control)"}, "[13]": {"details": "Postemergence, 125 g ai/ha, visual rating on scale 0 (no effect) to 100 (complete control), 14 to 21 d"}, "[14]": {"details": "Postemergence, 250 g ai/ha, scale 0 to 100 (0 no effect, 100 complete control)"}, "[15]": {"details": "Preemergence, 62 g ai/ha, scale 0 to 100 (0 no effect, 100 complete control)"}, "[16]": {"details": "Preemergence, 125 g ai/ha, scale 0 to 100 (0 no effect, 100 complete control)"}, "[17]": {"details": "Preemergence, 250 g ai/ha, scale 0 to 100, 0 no effect, 100 complete control"}, "[18]": {"details": "postemergence, 62 g ai/ha, scale 0 to 100, 0 no effect, 100 complete control"}}}
{"smiles": "Cc1nn(C)c(=O)c(-c2cccc3ccccc23)c1O", "note": "[Compound 11, 5-hydroxy-2,6-dimethyl-4-(1-naphthalenyl)-3(2H)-pyridazinone]", "values": [{"measurement": "Oilseed Rape plant response rating", "setting": "[1]; [12]", "value": 0}, {"measurement": "Plant response rating, Oilseed Rape", "setting": "[1]; [13]", "value": 20}, {"measurement": "Plant response rating, Oilseed Rape", "setting": "[1]; [14]", "value": 55}, {"measurement": "Plant response rating (scale of 0 to 100), Oilseed Rape", "setting": "[1]; Preemergence, 31 g ai/ha", "value": 5}, {"measurement": "Plant response rating, Oilseed Rape", "setting": "[1]; [15]", "value": 0}, {"measurement": "Plant response rating, Oilseed Rape", "setting": "[1]; [16]", "value": 5}, {"measurement": "Plant response rating, Oilseed Rape", "setting": "[1]; [17]", "value": 5}, {"measurement": "Plant response rating, Oilseed Rape", "setting": "[1]; [18]", "value": 15}, {"measurement": "Galium plant response rating", "setting": "[2]; [12]", "value": 85}, {"measurement": "Plant response rating, Galium", "setting": "[2]; [13]", "value": 90}, {"measurement": "Plant response rating, Galium", "setting": "[2]; [14]", "value": 90}, {"measurement": "Plant response rating (scale of 0 to 100), Galium", "setting": "[2]; Preemergence, 31 g ai/ha", "value": 70}, {"measurement": "Plant response rating, Galium", "setting": "[2]; [15]", "value": 80}, {"measurement": "Plant response rating, Galium", "setting": "[2]; [16]", "value": 100}, {"measurement": "Plant response rating, Galium", "setting": "[2]; [17]", "value": 100}, {"measurement": "Plant response rating, Galium", "setting": "[2]; [18]", "value": 85}, {"measurement": "Wheat, Winter plant response rating", "setting": "[3]; [12]", "value": 10}, {"measurement": "Plant response rating, Wheat, Winter", "setting": "[3]; [13]", "value": 15}, {"measurement": "Plant response rating, Wheat, Winter", "setting": "[3]; [14]", "value": 25}, {"measurement": "Plant response rating (scale of 0 to 100), Wheat, Winter", "setting": "[3]; Preemergence, 31 g ai/ha", "value": 0}, {"measurement": "Plant response rating, Wheat, Winter", "setting": "[3]; [15]", "value": 0}, {"measurement": "Plant response rating, Wheat, Winter", "setting": "[3]; [16]", "value": 20}, {"measurement": "Plant response rating, Wheat, Winter", "setting": "[3]; [17]", "value": 30}, {"measurement": "Plant response rating, Wheat, Winter", "setting": "[3]; [18]", "value": 15}, {"measurement": "Oat, Wild plant response rating", "setting": "[4]; [12]", "value": 40}, {"measurement": "Plant response rating, Oat, Wild", "setting": "[4]; [13]", "value": 85}, {"measurement": "Plant response rating, Oat, Wild", "setting": "[4]; [14]", "value": 98}, {"measurement": "Plant response rating (scale of 0 to 100), Oat, Wild", "setting": "[4]; Preemergence, 31 g ai/ha", "value": 15}, {"measurement": "Plant response rating, Oat, Wild", "setting": "[4]; [15]", "value": 70}, {"measurement": "Plant response rating, Oat, Wild", "setting": "[4]; [16]", "value": 80}, {"measurement": "Plant response rating, Oat, Wild", "setting": "[4]; [17]", "value": 85}, {"measurement": "Plant response rating, Oat, Wild", "setting": "[4]; [18]", "value": 75}, {"measurement": "Pigweed plant response rating", "setting": "[5]; [12]", "value": 35}, {"measurement": "Plant response rating, Pigweed", "setting": "[5]; [13]", "value": 95}, {"measurement": "Plant response rating, Pigweed", "setting": "[5]; [14]", "value": 100}, {"measurement": "Plant response rating (scale of 0 to 100), Pigweed", "setting": "[5]; Preemergence, 31 g ai/ha", "value": 0}, {"measurement": "Plant response rating, Pigweed", "setting": "[5]; [15]", "value": 0}, {"measurement": "Plant response rating, Pigweed", "setting": "[5]; [16]", "value": 98}, {"measurement": "Plant response rating, Pigweed", "setting": "[5]; [17]", "value": 100}, {"measurement": "Plant response rating, Pigweed", "setting": "[5]; [18]", "value": 65}, {"measurement": "Wheat, Spring plant response rating", "setting": "[6]; [12]", "value": 15}, {"measurement": "Plant response rating, Wheat, Spring", "setting": "[6]; [13]", "value": 25}, {"measurement": "Plant response rating, Wheat, Spring", "setting": "[6]; [14]", "value": 25}, {"measurement": "Plant response rating (scale of 0 to 100), Wheat, Spring", "setting": "[6]; Preemergence, 31 g ai/ha", "value": 5}, {"measurement": "Plant response rating, Wheat, Spring", "setting": "[6]; [15]", "value": 15}, {"measurement": "Plant response rating, Wheat, Spring", "setting": "[6]; [16]", "value": 25}, {"measurement": "Plant response rating, Wheat, Spring", "setting": "[6]; [17]", "value": 35}, {"measurement": "Plant response rating, Wheat, Spring", "setting": "[6]; [18]", "value": 15}, {"measurement": "Canarygrass plant response rating", "setting": "[7]; [12]", "value": 10}, {"measurement": "Plant response rating, Canarygrass", "setting": "[7]; [13]", "value": 30}, {"measurement": "Plant response rating, Canarygrass", "setting": "[7]; [14]", "value": 55}, {"measurement": "Plant response rating (scale of 0 to 100), Canarygrass", "setting": "[7]; Preemergence, 31 g ai/ha", "value": 45}, {"measurement": "Plant response rating, Canarygrass", "setting": "[7]; [15]", "value": 55}, {"measurement": "Plant response rating, Canarygrass", "setting": "[7]; [16]", "value": 90}, {"measurement": "Plant response rating, Canarygrass", "setting": "[7]; [17]", "value": 90}, {"measurement": "Plant response rating, Canarygrass", "setting": "[7]; [18]", "value": 20}, {"measurement": "Buckwheat, Wild plant response rating", "setting": "[8]; [12]", "value": 45}, {"measurement": "Plant response rating, Buckwheat, Wild", "setting": "[8]; [13]", "value": 60}, {"measurement": "Plant response rating, Buckwheat, Wild", "setting": "[8]; [14]", "value": 95}, {"measurement": "Plant response rating (scale of 0 to 100), Buckwheat, Wild", "setting": "[8]; Preemergence, 31 g ai/ha", "value": 20}, {"measurement": "Plant response rating, Buckwheat, Wild", "setting": "[8]; [15]", "value": 15}, {"measurement": "Plant response rating, Buckwheat, Wild", "setting": "[8]; [16]", "value": 15}, {"measurement": "Plant response rating, Buckwheat, Wild", "setting": "[8]; [17]", "value": 25}, {"measurement": "Plant response rating, Buckwheat, Wild", "setting": "[8]; [18]", "value": 45}, {"measurement": "Field Violet plant response rating", "setting": "[9]; [12]", "value": 65}, {"measurement": "Plant response rating, Field Violet", "setting": "[9]; [13]", "value": 75}, {"measurement": "Plant response rating, Field Violet", "setting": "[9]; [14]", "value": 90}, {"measurement": "Plant response rating (scale of 0 to 100), Field Violet", "setting": "[9]; Preemergence, 31 g ai/ha", "value": 85}, {"measurement": "Plant response rating, Field Violet", "setting": "[9]; [15]", "value": 100}, {"measurement": "Plant response rating, Field Violet", "setting": "[9]; [16]", "value": 100}, {"measurement": "Plant response rating, Field Violet", "setting": "[9]; [17]", "value": 100}, {"measurement": "Plant response rating, Field Violet", "setting": "[9]; [18]", "value": 65}, {"measurement": "Chickweed plant response rating", "setting": "[10]; [12]", "value": 45}, {"measurement": "Plant response rating, Chickweed", "setting": "[10]; [13]", "value": 80}, {"measurement": "Plant response rating, Chickweed", "setting": "[10]; [14]", "value": 100}, {"measurement": "Plant response rating (scale of 0 to 100), Chickweed", "setting": "[10]; Preemergence, 31 g ai/ha", "value": 20}, {"measurement": "Plant response rating, Chickweed", "setting": "[10]; [15]", "value": 100}, {"measurement": "Plant response rating, Chickweed", "setting": "[10]; [16]", "value": 100}, {"measurement": "Plant response rating, Chickweed", "setting": "[10]; [17]", "value": 100}, {"measurement": "Plant response rating, Chickweed", "setting": "[10]; [18]", "value": 90}, {"measurement": "Kochia plant response rating", "setting": "kochia (Kochia scoparia); [12]", "value": 60}, {"measurement": "Plant response rating, Kochia", "setting": "kochia (Kochia scoparia); [13]", "value": 85}, {"measurement": "Plant response rating, Kochia", "setting": "kochia (Kochia scoparia); [14]", "value": 100}, {"measurement": "Plant response rating (scale of 0 to 100), Kochia", "setting": "kochia (Kochia scoparia); Preemergence, 31 g ai/ha", "value": 10}, {"measurement": "Plant response rating, Kochia", "setting": "kochia (Kochia scoparia); [15]", "value": 40}, {"measurement": "Plant response rating, Kochia", "setting": "kochia (Kochia scoparia); [16]", "value": 75}, {"measurement": "Plant response rating, Kochia", "setting": "kochia (Kochia scoparia); [17]", "value": 95}, {"measurement": "Plant response rating, Kochia", "setting": "kochia (Kochia scoparia); [18]", "value": 75}, {"measurement": "Plant response rating, Barley, Spring", "setting": "[11]; [12]", "value": 0}, {"measurement": "Plant response rating, Barley, Spring", "setting": "[11]; [13]", "value": 10}, {"measurement": "Plant response rating, Barley, Spring", "setting": "[11]; [14]", "value": 10}, {"measurement": "Plant response rating (scale of 0 to 100), Barley, Spring", "setting": "[11]; Preemergence, 31 g ai/ha", "value": 5}, {"measurement": "Plant response rating, Barley, Spring", "setting": "[11]; [15]", "value": 5}, {"measurement": "Plant response rating, Barley, Spring", "setting": "[11]; [16]", "value": 10}, {"measurement": "Barley, Spring plant response rating", "setting": "[11]; [17]", "value": 15}, {"measurement": "Plant response rating, Barley, Spring", "setting": "[11]; [18]", "value": 0}]}
